US11884627B2, “Compounds and compositions for treating conditions associated with LPA receptor activity” (Lhotse Bio, Inc., priority 2022, dated 2024)

Legend:
human LPA1 [1] = biological target: T1, human LPA1 (Homo sapiens, UniProt Q92633); experiment: In vitro LPA1 calcium flux antagonist assay - Bioduro protocol; assay type: cell-based; settings: CHO-K1 cells overexpressing human LPA1 and G15a, LPA challenge at EC80
T1 construct: expressed in transfected cells; host or cells: CHO-K1
Procedure, shortened: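 Calcium mobilization read on FLIPR after EC80 LPA was added to compound-pretreated (30 min) CHO-K1 cells co-expressing human LPA1 and G15a. Cells were starved 4 h and dye-loaded with Fluo-8 AM/2.5 mM probenecid in HBSS-Hepes; inhibition normalized between DMSO and LPA-control RFU.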

human LPA1 [2] = biological target: T1, human LPA1; experiment: In vitro LPA1 functional antagonist assay (calcium mobilization, FLIPR); assay type: cell-based; settings: CHO-K1 cells overexpressing human LPA1, Oleoyl LPA challenge at EC80
Method: In Vitro LPA1 Functional Antagonist Assay
CHO-K1 cells overexpressing human LPA1 were seeded in a total volume of 20 μL into black-walled, clear-bottom. Poly-D-lysine coated 384-well microplates and incubated at 37° C., for the appropriate time prior to testing. Assays were performed in 1× Dye Loading Buffer consisting of 1× Dye, 1× Additive A and 2.5 mM Probenecid in HBSS/20 mM Hepes. Probenicid was prepared fresh. Cells were loaded with dye prior to testing. Media was aspirated from cells and replaced with 20 μL Dye Loading Buffer. Cells were incubated for 30-60 minutes at 37° C. After dye loading, cells were removed from the incubator and 10 μL 3× test compound was added. Cells were incubated for 30 minutes at room temperature in the dark to equilibrate plate temperature followed by Oleoyl LPA challenge at EC80. Compound antagonist activity was measured on a FLIPR Tetra (MSD). Calcium mobilization was monitored for 2 minutes and 10 μL Oleoyl LPA in HBSS/20 mM Hepes was added to the cells 5 seconds into the assay. For LPA EC80 determination, after dye loading, cells were removed from the incubator and 10 μL HBSS/20 mM Hepes was added. 3× vehicle was included in the buffer. Cells were incubated for 30 minutes at room temperature in the dark to equilibrate plate temperature. Intermediate dilution of LPA stocks was performed to generate 4×LPA samples in assay buffer. LPA agonist activity was measured on a FLIPR Tetra (MSD). Calcium mobilization was monitored for 2 minutes and 10 μL 4×LPA sample in HBSS/20 mM Hepes was added to the cells 5 seconds into the assay. Compound activity was analyzed using CBIS data analysis suite (ChemInnovation, CA). Percentage inhibition is calculated using the following formula: % Inhibition=100%×(1−(mean RFU of test sample−mean RFU of vehicle control)/(mean RFU of LPA control−mean RFU of vehicle control)).
Table B1 and Table B2 show the biological activity of compounds in in vitro LPA1 functional antagonist assay. Activity of the tested compounds provided in Table B1 is as follows: +++=IC50<1 μM; ++=IC50 1 μM−10 μM; +=IC50>10 μM.

[3] = calcium mobilization on FLIPR Tetra, read-out: IC50
[4] = Table B3, read-out: Activity (IC50 class)
[5] = Table B1, read-out: Activity (IC50 class)

T1 sequence (Q92633 whole entry): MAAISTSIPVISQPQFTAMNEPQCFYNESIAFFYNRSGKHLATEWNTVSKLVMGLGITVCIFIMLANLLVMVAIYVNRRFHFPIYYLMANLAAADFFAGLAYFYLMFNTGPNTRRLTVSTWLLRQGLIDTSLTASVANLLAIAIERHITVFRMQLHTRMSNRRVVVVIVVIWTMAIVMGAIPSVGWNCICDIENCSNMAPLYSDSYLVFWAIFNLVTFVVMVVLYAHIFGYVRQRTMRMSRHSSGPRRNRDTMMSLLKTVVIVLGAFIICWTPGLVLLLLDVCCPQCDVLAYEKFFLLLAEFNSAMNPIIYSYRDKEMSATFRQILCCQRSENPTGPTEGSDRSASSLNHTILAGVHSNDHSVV

SMILES	IC50 (human LPA1 [1]; [3]) [nM]	IC50 (human LPA1 [1]; [4]) [nM]	IC50 (human LPA1 [2]; Table B2, read-out: IC50) [nM]	IC50 (human LPA1 [2]; [5]) [nM]
COc1cc(-c2ccc(NCCC(=O)O)cc2COC2Cc3ccccc3C2)cc(OC)c1C [Compound 101, 3-((2-(((2,3-dihydro-1H-inden-2-yl)oxy)methyl)-3′,5′-dimethoxy-4′-methyl-[1,1′-biphenyl]-4-yl)amino)propanoic acid]	340	100 to 1000	27.2	< 1000
COc1cc(-c2ccc(NCCC(=O)O)cc2COCc2ccccc2)ccc1C(F)F [Compound 102]	–	–	2490	1000 to 10000
COc1cc(OC)cc(-c2ccc(NCCC(=O)O)cc2COC2Cc3ccccc3C2)c1 [Compound 103]	–	–	1540	1000 to 10000
COc1cc(OC)cc(-c2ccc(OCCC(=O)O)cc2COC2Cc3ccccc3C2)c1 [Compound 104]	628	100 to 1000	162	< 1000
COc1cc(-c2ccc(OCCC(=O)O)cc2COC2Cc3ccccc3C2)cc(OC)c1C [Compound 105, 3-((2-(((2,3-dihydro-1H-inden-2-yl)oxy)methyl)-3′,5′-dimethoxy-4′-methyl-[1,1′-biphenyl]-4-yl)oxy)propanoic acid]	245	100 to 1000	13.6	< 1000
COc1cc(-c2ccc(NC3(C(=O)O)CC3)cc2COC2Cc3ccccc3C2)cc(OC)c1C [Compound 109, 1-((2-(((2,3-dihydro-1H-inden-2-yl)oxy)methyl)-3′,5′-dimethoxy-4′-methyl-[1,1′-biphenyl]-4-yl)amino)cyclopropane-1-carboxylic acid]	94.1	< 100	2.68	< 1000
CCOc1cncc(-c2ccc(NC3(C(=O)O)CCOCC3)cc2COC2CC2)c1C [Compound 407]	96.5	< 100	–	–
CCOc1c(C)ncc(-c2ccc(NC3(C(=O)O)CCOCC3)cc2COC2CC2)c1C [Compound 408]	152	100 to 1000	–	–
CCOc1cncc(-c2ccc(NC3(C(=O)O)CCOCC3)c(F)c2COC2CC2)c1C(F)F [Compound 409]	229	100 to 1000	–	–
CCOc1cncc(-c2c(C)cc(NC3(C(=O)O)CCOCC3)cc2COC2CC2)c1C(F)F [Compound 410]	179	100 to 1000	–	–
CCOc1cncc(-c2ccc(C3(C(=O)O)CC3)cc2COC2CCCC2)c1C(F)F [Compound 412]	538	100 to 1000	–	–
CCOc1cncc(-c2ccc(NC3(C(=O)O)CCOCC3)cc2COCCC(C)C)c1C(F)F [Compound 413, 4-({4-[4-(difluoromethyl)-5-ethoxypyridin-3-yl]-3-[(3-methylbutoxy)methyl]phenyl}amino) oxane-4-carboxylic acid]	5.79	< 100	–	–
CCOc1c(C)ncc(-c2ccc(NC3(C(=O)O)CC(F)(F)C3)cc2COC2CC2)c1C [Compound 414]	112	100 to 1000	–	–
CCOc1cncc(-c2ccc(OC3(C(=O)O)CCOCC3)cc2COC2CC2)c1C(F)F [Compound 415]	66.2	< 100	–	–
CCOc1cncc(-c2ccc(NC3(C(=O)O)CCCC3)cc2COC2CC2)c1C [Compound 417]	35.8	< 100	–	–

The next lines start with the values.

IC50 (human LPA1 [1]; [3]) [nM]	IC50 (human LPA1 [1]; [4]) [nM]	IC50 (human LPA1 [2]; Table B2, read-out: IC50) [nM]	IC50 (human LPA1 [2]; [5]) [nM]	SMILES
12.6	< 100	9.54	–	COc1cc(-c2ccc(NC3(C(=O)O)CCOCC3)cc2CCC2CCOC2)cc(OC)c1C (single isomer, unassigned) [Compound 185, 4-((3′,5′-dimethoxy-4′-methyl-2-(2-(tetrahydrofuran-3-yl)ethyl)-[1,1′-biphenyl]-4-yl)amino)tetrahydro-2H-pyran-4-carboxylic acid]
16.5	< 100	10.3	–	COc1cc(-c2ccc(NC3(C(=O)O)CCOCC3)cc2COC2CC2)c(F)c(OC)c1C [Compound 256, 4-((2-(cyclopropoxymethyl)-2′-fluoro-3′,5′-dimethoxy-4′-methyl-[1,1′-biphenyl]-4-yl)amino)tetrahydro-2H-pyran-4-carboxylic acid]
8.12	< 100	18.6	–	CCOc1c(C)ccc(-c2ccc(NC3(C(=O)O)CCOCC3)cc2COC2CCCC2)c1C [Compound 280]
11.5	< 100	10.9	–	COc1cc(-c2ccc(NC3(C(=O)O)CCOCC3)cc2COC2CCCC2)c(C(F)F)c(OC)n1 [Compound 283]
11.9	< 100	3.97	–	CCCOc1cccc(-c2ccc(NC3(C(=O)O)CCOCC3)cc2COC2CCCC2)c1F [Compound 284]
13.9	< 100	6.62	–	Cc1c(OC2CC2)cccc1-c1ccc(NC2(C(=O)O)CCOCC2)cc1COC1CCCC1 [Compound 285]
5.85	< 100	7.15	–	Cc1c(OC2CC2)cccc1-c1ccc(NC2(C(=O)O)CCOCC2)cc1COC1CC1 [Compound 294, 4-((3′-cyclopropoxy-2-(cyclopropoxymethyl)-2′-methyl-[1,1′-biphenyl]-4-yl)amino)tetrahydro-2H-pyran-4-carboxylic acid]
3.31	< 100	7.94	–	CCOc1cccc(-c2ccc(NC3(C(=O)O)CCOCC3)cc2COC2CC2)c1Cl [Compound 295, 4-((2′-chloro-2-(cyclopropoxymethyl)-3′-ethoxy-[1,1′-biphenyl]-4-yl)amino)tetrahydro-2H-pyran-4-carboxylic acid]
0.763	< 100	2.64	–	CCOc1cc(OC)cc(-c2ccc(NC3(C(=O)O)CCOCC3)cc2CCC2CC2)c1F [Compound 298]
3.02	< 100	7.53	–	CCOc1cccc(-c2ccc(NC3(C(=O)O)CCOCC3)cc2COC2CC2)c1C [Compound 355, 4-((2-(cyclopropoxymethyl)-3′-ethoxy-2′-methyl-[1,1′-biphenyl]-4-yl)amino)tetrahydro-2H-pyran-4-carboxylic acid]
7.59	< 100	–	–	CCCCOCc1cc(NC2(C(=O)O)CCOCC2)ccc1-c1cc(OC)cc(OC)c1Cl [Compound 402]
23.1	< 100	–	–	CCOc1cncc(-c2ccc(NC3(C(=O)O)CCOCC3)cc2COC2CC2)c1C(F)F [Compound 403]
13	< 100	–	–	CCCCOCc1cc(NC2(C(=O)O)CCOCC2)ccc1-c1cncc(OCC)c1C(F)F [Compound 404]
20	< 100	–	–	CCOc1cncc(-c2ccc(NC3(C(=O)O)CCC(F)(F)CC3)cc2COC2CC2)c1C(F)F [Compound 406]
5.2	< 100	–	–	CCOc1cncc(-c2ccc(NC3(C(=O)O)CCOCC3)cc2COC2Cc3ccccc3C2)c1C [Compound 411, 4-({3-[(2,3-dihydro-1H-inden-2-yloxy)methyl]-4-(5-ethoxy-4-methylpyridin-3-yl)phenyl}amino)oxane-4-carboxylic acid]
8.79	< 100	–	–	CCOc1cncc(-c2ccc(NC3(C(=O)O)CCOCC3)cc2COC2CC3CC3C2)c1C (centres unmarked) [Compound 416, 4-{[3-({bicyclo[3.1.0]hexan-3-yloxy}methyl)-4-(5-ethoxy-4-methylpyridin-3-yl)phenyl]amino}oxane-4-carboxylic acid]
